We go through 14 compounds from patent US20260092061A1, “COMPOUNDS FOR TARGETED PROTEIN DEGRADATION” (Amphista Therapeutics Limited, priority 2022, published 2026).

The target of experiment [1] is T1, BRD9 (Homo sapiens, UniProt Q9H8M2).
T1 sequence (Q9H8M2 1-597): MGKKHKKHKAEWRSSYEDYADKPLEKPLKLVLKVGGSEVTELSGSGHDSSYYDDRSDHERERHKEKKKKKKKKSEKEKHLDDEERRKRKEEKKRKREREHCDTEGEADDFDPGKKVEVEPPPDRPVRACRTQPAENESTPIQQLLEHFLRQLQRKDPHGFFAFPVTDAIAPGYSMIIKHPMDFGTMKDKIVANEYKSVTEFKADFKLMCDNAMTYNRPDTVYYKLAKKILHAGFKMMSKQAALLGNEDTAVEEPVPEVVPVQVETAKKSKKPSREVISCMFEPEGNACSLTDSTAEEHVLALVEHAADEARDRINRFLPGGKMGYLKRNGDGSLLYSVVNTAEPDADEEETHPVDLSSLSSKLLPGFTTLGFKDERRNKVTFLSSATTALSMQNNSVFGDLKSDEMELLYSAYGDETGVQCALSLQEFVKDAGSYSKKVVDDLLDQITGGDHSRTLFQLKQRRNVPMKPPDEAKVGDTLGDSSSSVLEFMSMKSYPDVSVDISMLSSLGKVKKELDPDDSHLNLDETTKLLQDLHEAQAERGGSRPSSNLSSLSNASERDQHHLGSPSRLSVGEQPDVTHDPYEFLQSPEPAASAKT
As to the kind of experiment: Degradation of BRD9 (IF), immunofluorescence in MV4-11 cells, 24 hours (Assay Protocol 2). It counts as cell-based. Also on record: A suspension of MV4-11 cells (ATCC CRL-9591) was prepared; host or cells: MV4-11. In short, it runs like this:
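% BRD9 remaining, scaled between DMSO (high) and 100 nM CFT-8634 (low) control wells, derives from mean Alexa 647 contrast in central nuclei by high-content imaging. MV4-11 cells had 24 h compound exposure at 37° C. before PFA fixation, Triton permeabilisation and anti-BRD9 E4Q3F immunostaining.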

Experiment [2] concerns the target T1, BRD9. As to the kind of experiment: BRD9 degradation, HiBiT-BRD9 KI HEK293 (LgBiT) cells, NanoGlo Lytic Endpoint assay (Assay Protocol 1). It counts as cell-based. To be noted: BRD9 degradation; for Dmax at 1 µM / Dmax: HEK293; for Dmax at 1 µM: 1 μM compound at 6 h of treatment, read-out: Assay 1 Dmax. In short, it runs like this:
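HiBiT-tagged BRD9 knock-in HEK293 (LgBiT) cells exposed to compounds for 6 h at 37 °C, 5% CO2. Residual BRD9 measured by HiBiT lytic luminescence. % BRD9 remaining normalised to DMSO-treated cells (high) and no-cell wells (low).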

The mark [3] stands for this setting: MV4-11, 24 h, Table 2, BRD9 degradation (IF), Assay Protocol 2, MV4-11 cells, read-out: Assay 2 DCmax.
Setting [4] is: Table 2, BRD9 degradation (IF), Assay Protocol 2, MV4-11 cells, read-out: Assay 2 DC50.
Setting [5] is: Table 2, Assay Protocol 1, 6 h of treatment, read-out: Assay 1 DC50.
Where [6] appears, read: Table 4, BRD9 degradation, determined according to Assay Protocol 2, read-out: DC50^2.
Setting [7] is: Table 4, determined according to Assay Protocol 1, read-out: Dmax^1.
Where [8] appears, read: MV4-11, Assay protocol 2, BRD9 degradation, read-out: Dmax.
[9] abbreviates: Assay protocol 1, read-out: DC50.
[10] abbreviates: Assay protocol 1, read-out: Dmax.
[11] abbreviates: Assay protocol 2, BRD9 degradation, read-out: DC50.

As for `COc1cc(-c2cn(C)c(=O)c3cnccc23)cc(OC)c1CN1CCN(Cc2cccc3c2CCN(C(=O)/C(C#N)=C/c2nccs2)[C@H]3C)CC1` (single isomer, unassigned) [Compound A15], the Dmax at BRD9 [1] (setting [3]) is 40 to 70%. The figures for the half-maximal degradation concentration (DC50) on BRD9 [1] (setting [4]) and on BRD9 [2] (setting [5]) were < 1.25 nM and 1.25 to 10 nM, respectively. The Dmax at 1 µM at BRD9 [2] (Table 2, Assay Protocol 1) lay within 40 to 70%.
`COc1cc(-c2cn(C)c(=O)c(C)c2C)cc(OC)c1CN1CCN(C(=O)C2CCCN(C(=O)/C(C#N)=C/c3nccs3)C2)CC1` (stereo not drawn) [Compound B205]: the Dmax was in the range of 50 to 70% on BRD9 [1] (MV4-11, Table 4, BRD9 degradation, determined according to Assay Protocol 2, read-out: Dmax^2) and 30 to 50% on BRD9 [2] (setting [7]). Also, the DC50 on BRD9 [1] (setting [6]) was in the range of 25 to 200 nM.
Consider `COc1cc(-c2cn(C)c(=O)c(C)c2C)cc(OC)c1CN1CCN(Cc2cccc3c2CCN(C(=O)/C(C#N)=C/c2cc(C)ccn2)C3C)CC1` (mixture of isomers) [Compound B19, (E/Z)-2-(5-((4-(2,6-dimethoxy-4-(1,4,5-trimethyl-6-oxo-1,6-dihydropyridin-3-yl)benzyl)piperazin-1-yl)methyl)-1-methyl-1,2,3,4-tetrahydroisoquinoline-2-carbonyl)-3-(4-methylpyridin-2-yl)acrylonitrile], for which the Dmax at BRD9 [1] (setting [8]) and on BRD9 [2] (setting [10]) was 40 to 70% in each case. Moreover, on BRD9 [2] (setting [9]), the DC50 fell in the range of 1.25 to 10 nM.
Regarding `COc1cc(-c2cn(C)c(=O)c(C)c2C)cc(OC)c1CN1CCN(c2cccc(C3CCCN3C(=O)/C(C#N)=C/C(C)(C)C)c2)CC1` (mixture of isomers) [Compound B41, (E/Z)-2-(2-(3-(4-(2,6-dimethoxy-4-(1,4,5-trimethyl-4-oxo-1,6-dihydropyridin-3-yl)benzyl)piperazin-1-yl)phenyl)pyrrolidine-1carbonyl)-4,4-dimethylpent-2-enenitrile], the results for the DC50 on BRD9 [1] (setting [11]) and on BRD9 [2] (setting [9]) were 10 to 25 nM and 1.25 to 10 nM, respectively. The Dmax on BRD9 [1] (setting [8]) and on BRD9 [2] (setting [10]) was > 75% each time.
As to `COc1cc(-c2cn(C)c(=O)c(C)c2C)cc(OC)c1CN1C2CC1CN(C(=O)/C(C#N)=C/c1nccs1)C2` (mixture of isomers) [BRD9n, (E/Z)-2-(6-(2,6-dimethoxy-4-(1,4,5-trimethyl-6-oxo-1,6-dihydropyridin-3-yl)benzyl)-3,6-diazabicyclo[3.1.1]heptane-3-carbonyl)-3-(thiazol-2-yl)acrylonitrile], the DC50 at BRD9 [1] (setting [6]) lay in the range of 25 to 200 nM. The Dmax on BRD9 [2] (setting [7]) lay within 50 to 70%.
As for `COc1cc(-c2cn(C)c(=O)c(C)c2C)cc(OC)c1CN1CCN(C(=O)c2ccc(C3CCCN3C(=O)/C(C#N)=C/C(C)(C)C)cc2)CC1` (mixture of isomers) [Compound B55, (E/Z)-2-(2-(4-(4-(2,6-dimethoxy-4-(1,4,5-trimethyl-6-oxo-1,6-dihydropyridin-3-yl)benzyl)piperazine-1-carbonyl)phenyl)pyrrolidine-1-carbonyl)-4,4-dimethylpent-2-enenitrile], the DC50 at BRD9 [1] (setting [11]) lay in the range of 25 to 1000 nM; on BRD9 [2] (setting [9]) it was 10 to 25 nM. The Dmax at BRD9 [1] (setting [8]) and on BRD9 [2] (setting [10]) was > 75% each time.
For the compound `COc1cc(-c2cn(C)c(=O)c(C)c2C)cc(OC)c1CN1CC2CC(C1)N2Cc1cccc2c1CCN(C(=O)/C(C#N)=C/c1cccc(Br)n1)C2C` (mixture of isomers) [Compound B7, (E/Z)-3-(6-bromopyridin-2-yl)-2-(5-((3-(2,6-dimethoxy-4-(1,4,5-trimethyl-6-oxo-1,6-dihydropyridin-3-yl)benzyl)-3,6-diazabicyclo[3.1.1]heptan-6-yl)methyl)-1-methyl-1,2,3,4-tetrahydroisoquinoline-2-carbonyl)acrylonitrile], the DC50 is < 1.25 nM on BRD9 [1] (setting [11]) and 1.25 to 10 nM at BRD9 [2] (setting [9]). For the same compound, the Dmax on BRD9 [1] (setting [8]) and on BRD9 [2] (setting [10]) was 40 to 70% each time.
With `COc1cc(-c2cn(C)c(=O)c(C)c2C)cc(OC)c1CN1CCN(Cc2cccc3c2CCN(C(=O)/C(C#N)=C/C2(C(F)(F)F)CCC2)C3C)CC1` (mixture of isomers) [Compound B36, (E/Z)-2-(5-((4-(2,6-dimethoxy-4-(1,4,5-trimethyl-6-oxo-1,6-dihydropyridin-3-yl)benzyl)piperazin-1-yl)methyl)-1-methyl-1,2,3,4-tetrahydroisoquinoline-2-carbonyl)-3-(1-(trifluoromethyl)cyclobutyl)acrylonitrile], the DC50 at BRD9 [1] (setting [11]) was 25 to 1000 nM; on BRD9 [2] (setting [9]), 1.25 to 10 nM. The Dmax at BRD9 [1] (setting [8]) and on BRD9 [2] (setting [10]) was 40 to 70% throughout.
Take `COc1cc(-c2cn(C)c(=O)c3cnccc23)cc(OC)c1CN1C2CCC1CN(Cc1cccc3c1CCN(C(=O)/C(C#N)=C/C(C)(C)C)C3C)C2` (stereo not drawn) [Compound A49]: the Dmax on BRD9 [1] (setting [3]) lay in the range of 40 to 70%. The values for the half-maximal degradation concentration (DC50) at BRD9 [1] (setting [4]) and on BRD9 [2] (setting [5]) were < 1.25 nM and 1.25 to 10 nM, respectively. For the same compound, the Dmax at 1 µM at BRD9 [2] (Table 2, Assay Protocol 1) is 40 to 70%.
On to `COc1cc(-c2cn(C)c(=O)c(C)c2C)cc(OC)c1CN1CCN(Cc2cccc3c2CCN(C(=O)/C(C#N)=C/C2(F)CC2)C3C)CC1` (mixture of isomers) [Compound B20, (E/Z)-2-(5-((4-(2,6-dimethoxy-4-(1,4,5-trimethyl-6-oxo-1,6-dihydropyridin-3-yl)benzyl)piperazin-1-yl)methyl)-1-methyl-1,2,3,4-tetrahydroisoquinoline-2-carbonyl)-3-(1-fluorocyclopropyl)acrylonitrile], for which the DC50 on BRD9 [1] (setting [11]) and on BRD9 [2] (setting [9]) was < 1.25 nM throughout. The Dmax at BRD9 [1] (setting [8]) and on BRD9 [2] (setting [10]) was > 75% in each case.
In the case of `COc1cc(-c2cn(C)c(=O)c3cc(C(=O)NCCCCCOc4cccc(C5CCCN5C(=O)/C(C#N)=C/c5nccs5)c4)sc23)cc(OC)c1CN(C)C` (mixture of isomers) [Compound A76, (E/Z)—N-(5-(3-(1-(2-cyano-3-(thiazol-2-yl)acryloyl)pyrrolidin-2-yl)phenoxy)pentyl)-7-(4-((dimethylamino)methyl)-3,5-dimethoxyphenyl)-5-methyl-4-oxo-4,5-dihydrothieno[3,2-c]pyridine-2-carboxamide], the Dmax at BRD9 [1] (setting [3]) fell in the range of 70 to 75%. In addition, the results for the 50% degradation concentration (DC50) on BRD9 [1] (setting [4]) and on BRD9 [2] (setting [5]) were < 1.25 nM and 25 to 300 nM, respectively. For the same compound, the Dmax at 1 µM at BRD9 [2] (Table 2, Assay Protocol 1) was in the range of 40 to 70%.
As for `COc1cc(-c2cn(C)c(=O)c(C)c2C)cc(OC)c1CN1CCN(CC(=O)NCCOc2ccc3c(c2)CCN(C(=O)/C(C#N)=C/c2nccs2)C3C)CC1` (mixture of isomers) [Compound B31, (E/Z)—N-(2-((2-(2-cyano-3-(thiazol-2-yl)acryloyl)-1-methyl-1,2,3,4-tetrahydroisoquinolin-6-yl)oxy)ethyl)-2-(4-(2,6-dimethoxy-4-(1,4,5-trimethyl-1-oxo-1,6-dihydropyridin-3-yl)benzyl)piperazin-1-yl)acetamide], the DC50 at BRD9 [1] (setting [11]) lay within 10 to 25 nM. Moreover, the Dmax on BRD9 [1] (setting [8]) and at BRD9 [2] (setting [10]) was 40 to 70% in each case.
Regarding `COc1cc(-c2cn(C)c(=O)c3cnccc23)cc(OC)c1CN(C)Cc1ccc2c(c1)CCN(C(=O)/C(C#N)=C/c1cccc(Br)n1)C2C` (mixture of isomers) [Compound A66], the Dmax at BRD9 [1] (setting [3]) is > 75%. In addition, the DC50 on BRD9 [1] (setting [4]) and at BRD9 [2] (setting [5]) was < 1.25 nM throughout. For the same compound, the Dmax at 1 µM at BRD9 [2] (Table 2, Assay Protocol 1) was 40 to 70%.
Turning to `COc1cc(-c2cn(C)c(=O)c(C)c2C)cc(OC)c1CN1CCN(Cc2cccc3c2CCN(C(=O)/C(C#N)=C/C2(C)COC2)C3C)CC1` (mixture of isomers) [Compound A51, (E/Z)-2-[5-[[4-[[2,6-dimethoxy-4-(1,4,5-trimethyl-6-oxo-3-pyridyl)phenyl]methyl]piperazin-1-yl]methyl]-1-methyl-3,4-dihydro-1H-isoquinoline-2-carbonyl]-3-(3-methyloxetan-3-yl)prop-2-enenitrile], the Dmax at BRD9 [1] (setting [3]) fell in the range of 40 to 70%. Further, the values for the DC50 at BRD9 [1] (setting [4]) and at BRD9 [2] (setting [5]) were < 1.25 nM and 1.25 to 10 nM, respectively. The Dmax at 1 µM at BRD9 [2] (Table 2, Assay Protocol 1) lay in the range of 40 to 70%.
